Tests used:
human GLP-1R receptor = molecular target: T1, human GLP-1R receptor (Homo sapiens, UniProt P43220, L260F); experiment: CHOK1 GLP-1R cAMP Assay; assay type: cell-based; settings: CHO-K1 cell line stably expressing human GLP-1R; HTRF cAMP detection
T1 construct: expressed in transfected cells; host or cells: CHO-K1 (ATCC CCL-61)
Experimental: A cell line stably expressing the human GLP-1R receptor (NM_002062.5, including the naturally-occurring variant Leu260Phe) in a CHO-K1 (ATCC® CCL-61™) was used for assay.
GLP-1 Receptor mediated agonist activity was determined in a cell based assay measuring cAMP levels in cells using Homogeneous Time-Resolved Fluorescence (HTRF) cAMP detection kit (CisBio catalog #62AM4PEC, cAMP Gs Dynamic range kit). The cAMP detection method is based on a competitive immunoassay, in which cAMP produced by the cells and cAMP labeled with the dye d2 compete for binding to a Europium-Cryptate-labeled anti-cAMP antibody. The specific HTRF signal is inversely proportional to the concentration of cAMP.
Compounds were added to individual well in 384 well-assay plates (Greiner #784076) using an Echo (LabCyte) dispenser from 10 mM stocks. Varying concentration of compounds were added to wells, and dimethyl sulfoxide was used to normalize each well to a volume of 100 nanoliter. A dose response curve of GLP1(7-36)NH2 (Bachem H-6795) was included in each run. 5 μL of cAMP concentration response standards are applied in specified wells in the assay plates.
Cryo-preserved cells are thawed and resuspended in assay buffer pre-heated to 37° C. (20 mM 2-[4-(2-hydroxyethyl)piperazin-1-yl]ethanesulfonic acid (HEPES) pH 7.4, lx Hank's Balanced Salt Solution (HBSS, Life Technologies #14065) supplemented with 0.1% (w/v) bovine serum albumin (Sigma, A-7030)). Cells were centrifuged at 250*g for 5 min at room temperature, and resuspend in room tempered assay buffer to a final density of 0.16*10^6 cell/mL, to deliver 800 cells/well. 5 μL of assay buffer with 1 mM 3-isobutyl-1-methylxanthin (IBMX; Sigma cat I-7018) was dispensed per well in assay plates using a multidrop combi (Thermo Scientific) subsequently 5 μL of cell suspension was distributed to relevant wells in the assay using a multidrop dispenser. Assay plates were incubated 20 min at room temperature.
Detection reagents, Europium-Cryptate-labeled anti-cAMP antibody and cAMP labeled with the dye d2, are diluted in lysis buffer, provided by the manufacturer. 5 μL of each detection reagent is supplemented to each assay well using a multidrop dispenser. Assay plates are incubated in the dark for at least one hour. The HTRF signal is measured using the HTRF module (excitation: 337 nm, emission A: 665 nm and emission B: 620 nm) in Pherastar FSX (BMG Labtech).
Raw data were converted to pM cAMP using the cAMP standard curve included in each run. Converted data were further analyzed in Genedata Screener (Genedata) and EC50 determinations were made from agonist dose-response curves analyzed with a curve fitting program using a 4-parameter logistic dose response equation (Equation y=A+((B−A)/1+((C/x)^D))) where A is no stimulation, B is full stimulation, C is the EC50 and D is the Hill slope). The percent effect was determined relative to a saturating concentration of a full GLP-1R agonist (GLP1(7-36)NH2 has 100% effect in this assay setup).

[1] = molecular target: T2, endogenous human glucagon-like peptide 1 receptor (GLP-1R) (Homo sapiens, UniProt P43220); experiment: EndoC cAMP Accumulation Assay; assay type: cell-based; settings: EndoC-βH1 human pancreatic β cell line; HTRF cAMP assay
T2 construct: endogenous human glucagon-like peptide 1 receptor (GLP-1R) in a pancreatic insulinoma cell line; host or cells: EndoC-βH1 human pancreatic β cell line
Source text: EndoC cAMP Accumulation Assay
A HTRF (Homogeneous Time-Resolved Fluorescence) cAMP assay (cAMP Gs dynamic kit; CisoBio Cat #62AM4PEJ) was used to identify agonists of the endogenous human glucagon-like peptide 1 receptor (GLP-1R) in a pancreatic insulinoma cell line (EndoC-βH1). […] EndoC-βH1 cells have detectable GLP-1R mRNA as detected by qPCR^1. […] The EndoC-βH1 cell line is a valid model of human beta cells and applicable for screenings to identify novel drug target candidates (Mol. Metab., 2018, 8, 144-157). CisBio HTRF cAMP kits are based on a competitive immunoassay using cryptate-labelled anti-cAMP antibody and d2-labeled cAMP. The detection kit is intended for the direct quantitative determination of cAMP. The specific signal (i.e. energy transfer) is inversely proportional to the concentration of cAMP in the standard or sample. Test compounds (10 mM in DMSO) were diluted into assay buffer (HBSS (Sigma #H8264) supplemented with 25 mM HEPES (Gibco #15630, pH 7.4), 0.1% BSA (Sigma #A3059) and 0.5 mM IBMX (Sigma #I7018) included fresh on the day of the assay) into 96 well U-bottom plates (Greiner #650201). Diluted compounds were transferred to ECHO source PP plates (Labcyte #P-05525) and dose response curves were dispensed acoustically using ECHO 550 into black shallow-well u-bottom 384-well HTRF Assay Plates (Corning 4514).
Cryovials of EndoC-H1 (supplied at 1×10e^7 cells/vial) were used directly for screening. The cryovials and were removed from LN2 and thawed rapidly in a 37° C. water bath. The cells were resuspended in assay buffer and centrifuged at 300 g for 5 min. Cells were resuspended in assay buffer at the appropriate concentration, typically at 12e5 cells per mL (3000 cells per well, dependent on cell batch) and 2.5 μL diluted cells were added to all wells of destination plate by Multidrop combi reagent dispenser (Thermofisher). The plates were incubated at room temperature for 30 min. The assay was stopped by adding 2.5 μL anti-cAMP cryptate solution to all wells and 2.5 μL cAMP-d2 solution (both diluted 1:20 in lysis buffer) to columns 1-22 by Combi drop. A volume of 2.5 μL cAMP-d2 solution was added to wells E23 to P24 and 2.5 μL lysis buffer added to wells A23 to D24 by multichannel pipette. The plates were incubated at room temperature for 1 hr and read on an Envision plate reader using excitation wavelength of 320 nm and emission of 590 nm and 660 nm.
Raw data from Envision is converted to % DeltaF according to the manufacturer's instructions. Dose response curves are analysed via 4-Parameter Logistical Analysis and assay plate Z′ values obtained. Samples are graphed as percentage (%) activation plots compared to GIP (1-42, Bachem H-5645) with assay window defined by negative control as basal cell cAMP levels and positive control are defined by maximum GIP (82.5 nM) signal. GLP1 (7-36 amide, Bachem H-6795) dose response curve was included on all plates.

T2 sequence (P43220 24-463): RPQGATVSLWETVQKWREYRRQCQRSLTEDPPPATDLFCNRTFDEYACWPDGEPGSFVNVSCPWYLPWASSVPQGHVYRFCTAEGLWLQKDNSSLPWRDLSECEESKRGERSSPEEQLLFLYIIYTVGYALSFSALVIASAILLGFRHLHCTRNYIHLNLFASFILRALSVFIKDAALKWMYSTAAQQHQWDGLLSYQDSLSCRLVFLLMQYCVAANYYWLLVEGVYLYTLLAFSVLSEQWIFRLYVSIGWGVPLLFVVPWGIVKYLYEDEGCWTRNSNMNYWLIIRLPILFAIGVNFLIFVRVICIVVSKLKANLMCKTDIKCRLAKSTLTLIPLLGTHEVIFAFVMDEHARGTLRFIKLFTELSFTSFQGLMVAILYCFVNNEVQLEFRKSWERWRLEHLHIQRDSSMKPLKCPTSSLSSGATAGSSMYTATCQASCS
T1 sequence (P43220 24-463 L260F): as the sequence (P43220 24-463) above, with L237F counted along it

| SMILES | EC50 (human GLP-1R receptor) [nM] | EC50 [1] [nM] |
| --- | --- | --- |
| C[C@]1(c2ccc(Cl)cn2)Oc2cccc(N3CCN(Cc4nc5ccc(C(=O)O)cc5n4C[C@@H]4CCO4)[C@H]4COC[C@H]43)c2O1 (single isomer, unassigned) [Example 5c, 2-(((4aR*,7aS*)-4-((R*)-2-(5-Chloropyridin-2-yl)-2-methylbenzo[d][1,3]dioxol-4-yl)hexahydrofuro[3,4-b]pyrazin-1(2H)-yl)methyl)-1-(((S)-oxetan-2-yl)methyl)-1H-benzo[d]imidazole-6-carboxylic acid] | 100 | 610 |
| C[C@]1(c2ccc(Cl)cn2)Oc2cccc(N3CCN(Cc4nc5ccc(C(=O)O)cc5n4C[C@@H]4CCO4)[C@H]4COC[C@H]43)c2O1 (single isomer, unassigned) [Example 5d, 2-(((4aR*,7aS*)-4-((R*)-2-(5-Chloropyridin-2-yl)-2-methylbenzo[d][1,3]dioxol-4-yl)hexahydrofuro[3,4-b]pyrazin-1(2H)-yl)methyl)-1-(((S)-oxetan-2-yl)methyl)-1H-benzo[d]imidazole-6-carboxylic acid] | 330 | 2100 |
| C[C@]1(c2ccc(Cl)cc2F)Oc2cccc(N3CCN(Cc4nc5ccc(C(=O)O)cc5n4C[C@@H]4CCO4)[C@H]4COC[C@H]43)c2O1 (single isomer, unassigned) [Example 6d, 2-(((4aR*,7aS*)-4-((R*)-2-(4-Chloro-2-fluorophenyl)-2-methylbenzo[d][1,3]dioxol-4-yl)hexahydrofuro[3,4-b]pyrazin-1(2H)-yl)methyl)-1-(((S)-oxetan-2-yl)methyl)-1H-benzo[d]imidazole-6-carboxylic acid] | 520 | 1100 |
| C[C@]1(c2ccc(Cl)cc2F)Oc2cccc(N3CCN(Cc4nc5ccc(C(=O)O)cc5n4CCn4cccn4)[C@H]4COC[C@H]43)c2O1 (single isomer, unassigned) [Example 7c] | 110 | 3900 |
| C[C@]1(c2ccc(Cl)cn2)Oc2cccc(N3CCN(Cc4nc5ccc(C(=O)O)cc5n4C[C@@H]4CCCO4)[C@H]4COC[C@H]43)c2O1 (single isomer, unassigned) [Example 8b, 2-(((4aR*,7aS*)-4-((R*)-2-(5-Chloropyridin-2-yl)-2-methylbenzo[d][1,3]dioxol-4-yl)hexahydrofuro[3,4-b]pyrazin-1(2H)-yl)methyl)-1-(((S)-tetrahydrofuran-2-yl)methyl)-1H-benzo[d]imidazole-6-carboxylic acid] | 530 | 1100 |
| C[C@]1(c2ccc(Cl)cn2)Oc2cccc(N3CCN(Cc4nc5c(F)cc(C(=O)O)cc5n4C[C@@H]4CCO4)[C@H]4COC[C@H]43)c2O1 (single isomer, unassigned) [Example 9b, 2-((4aR*,7aS*)-4-((R*)-2-(5-Chloropyridin-2-yl)-2-methylbenzo[d][1,3]dioxol-4-yl)hexahydrofuro[3,4-b]pyrazin-1(2H)-yl)methyl)-4-fluoro-1-(((S)-oxetan-2-yl)methyl)-1H-benzo[d]imidazole-6-carboxylic acid] | 180 | 660 |

Now those with a lower EC50 (human GLP-1R receptor), led by results:

| EC50 (human GLP-1R receptor) [nM] | EC50 [1] [nM] | SMILES |
| --- | --- | --- |
| 5.1 | 4.6 | C[C@]1(c2ccc(Cl)cn2)Oc2cccc(N3CCN(Cc4nc5c(Cl)cc(C(=O)O)cc5n4C[C@@H]4CCCO4)[C@H]4COC[C@H]43)c2O1 (single isomer, unassigned) [Example 4a, 4-Chloro-2-(((4aR*,7aS*)-4-((R*)-2-(5-chloropyridin-2-yl)-2-methylbenzo[d][1,3]dioxol-4-yl)hexahydrofuro[3,4-b]pyrazin-1(2H)-yl)methyl)-1-(((S)-tetrahydrofuran-2-yl)methyl)-1H-benzo[d]imidazole-6-carboxylic acid] |
| 80 | 130 | C[C@]1(c2ccc(Cl)cn2)Oc2cccc(N3CCN(Cc4nc5c(Cl)cc(C(=O)O)cc5n4C[C@@H]4CCCO4)[C@H]4COC[C@H]43)c2O1 (single isomer, unassigned) [Example 4b, 4-Chloro-2-(((4aR*,7aS*)-4-((R*)-2-(5-chloropyridin-2-yl)-2-methylbenzo[d][1,3]dioxol-4-yl)hexahydrofuro[3,4-b]pyrazin-1(2H)-yl)methyl)-1-(((S)-tetrahydrofuran-2-yl)methyl)-1H-benzo[d]imidazole-6-carboxylic acid] |
| 54 | 300 | C[C@]1(c2ccc(Cl)cc2F)Oc2cccc(N3CCN(Cc4nc5ccc(C(=O)O)cc5n4C[C@@H]4CCO4)[C@H]4COC[C@H]43)c2O1 (single isomer, unassigned) [Example 6b, 2-(((4aR*,7aS*)-4-((R*)-2-(4-Chloro-2-fluorophenyl)-2-methylbenzo[d][1,3]dioxol-4-yl)hexahydrofuro[3,4-b]pyrazin-1(2H)-yl)methyl)-1-(((S)-oxetan-2-yl)methyl)-1H-benzo[d]imidazole-6-carboxylic acid] |
| 39 | 150 | C[C@]1(c2ccc(Cl)cc2F)Oc2cccc(N3CCN(Cc4nc5ccc(C(=O)O)cc5n4C[C@@H]4CCO4)[C@H]4COC[C@H]43)c2O1 (single isomer, unassigned) [Example 6c, 2-(((4aR*,7aS*)-4-((R*)-2-(4-Chloro-2-fluorophenyl)-2-methylbenzo[d][1,3]dioxol-4-yl)hexahydrofuro[3,4-b]pyrazin-1(2H)-yl)methyl)-1-(((S)-oxetan-2-yl)methyl)-1H-benzo[d]imidazole-6-carboxylic acid] |
| 46 | 19 | C[C@]1(c2ccc(Cl)cc2F)Oc2cccc(N3CCN(Cc4nc5ccc(C(=O)O)cc5n4CCn4cccn4)[C@H]4COC[C@H]43)c2O1 (single isomer, unassigned) [Example 7a] |
